# From PubChem BioAssay (NCI)
#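 Dose response: 5 concentrations. Exposure: 48 h. Format: 96-well plates. Endpoint: linear interpolation; highest concentration if not reached. GI50 is the concentration that inhibits growth by half. Definition used: TGI = concentration required for complete inhibition of growth.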
# Legend:
# Assay in all cases: inhibition of tumour cell growth, NCI panel, 48 h
# 786-0 renal = system: 786-0 renal
# A498 renal = system: A498 renal
# A549 NSCLC = system: A549 NSCLC
# ACHN renal = system: ACHN renal
# BT-549 breast = system: BT-549 breast
# CAKI-1 renal = system: CAKI-1 renal
# CCRF-CEM leukemia = system: CCRF-CEM leukemia
# COLO 205 colon = system: COLO 205 colon
# DU-145 prostate = system: DU-145 prostate
# EKVX NSCLC = system: EKVX NSCLC
# HCC-2998 colon = system: HCC-2998 colon
# HCT-116 colon = system: HCT-116 colon
# HCT-15 colon = system: HCT-15 colon
# HL-60(TB) leukemia = system: HL-60(TB) leukemia
# HOP-62 NSCLC = system: HOP-62 NSCLC
# HOP-92 NSCLC = system: HOP-92 NSCLC
# HS 578T breast = system: HS 578T breast
# HT29 colon = system: HT29 colon
# IGROV1 ovarian = system: IGROV1 ovarian
# K-562 leukemia = system: K-562 leukemia
# KM12 colon = system: KM12 colon
# LOX IMVI melanoma = system: LOX IMVI melanoma
# M14 melanoma = system: M14 melanoma
# MALME-3M melanoma = system: MALME-3M melanoma
# MCF7 breast = system: MCF7 breast
# MDA-MB-231 breast = system: MDA-MB-231 breast
# MDA-MB-435 = system: MDA-MB-435
# MOLT-4 leukemia = system: MOLT-4 leukemia
# NCI-H226 lung = system: NCI-H226 lung
# NCI-H23 lung = system: NCI-H23 lung
# NCI-H460 lung = system: NCI-H460 lung
# NCI-H522 lung = system: NCI-H522 lung
# NCI/ADR-RES ovarian = system: NCI/ADR-RES ovarian
# OVCAR-3 ovarian = system: OVCAR-3 ovarian
# OVCAR-4 ovarian = system: OVCAR-4 ovarian
# OVCAR-5 ovarian = system: OVCAR-5 ovarian
# OVCAR-8 ovarian = system: OVCAR-8 ovarian
# PC-3 prostate = system: PC-3 prostate
# RPMI-8226 leukemia = system: RPMI-8226 leukemia
# RXF 393 renal = system: RXF 393 renal
# SF-268 CNS = system: SF-268 CNS
# SF-295 CNS = system: SF-295 CNS
# SF-539 CNS = system: SF-539 CNS
# SK-MEL-2 melanoma = system: SK-MEL-2 melanoma
# SK-MEL-28 melanoma = system: SK-MEL-28 melanoma
# SK-MEL-5 melanoma = system: SK-MEL-5 melanoma
# SK-OV-3 ovarian = system: SK-OV-3 ovarian
# SN12C renal = system: SN12C renal
# SNB-19 CNS = system: SNB-19 CNS
# SNB-75 CNS = system: SNB-75 CNS
# SR leukemia = system: SR leukemia
# SW-620 colon = system: SW-620 colon
# T-47D breast = system: T-47D breast
# TK-10 renal = system: TK-10 renal
# U251 CNS = system: U251 CNS
# UACC-257 melanoma = system: UACC-257 melanoma
# UACC-62 melanoma = system: UACC-62 melanoma
# UO-31 renal = system: UO-31 renal
smiles,measurement,setting,value
COc1ccc([C@H]2[C@H](O)C(=O)N2c2cc(OC)c(OC)c(OC)c2)cc1F,GI50,786-0 renal,< 0.01 µM
same,TGI,786-0 renal,> 100 µM
same,GI50,A498 renal,> 100 µM
same,TGI,A498 renal,> 100 µM
same,GI50,A549 NSCLC,< 0.01 µM
same,TGI,A549 NSCLC,> 100 µM
same,GI50,ACHN renal,< 0.01 µM
same,TGI,ACHN renal,> 100 µM
same,GI50,BT-549 breast,< 0.01 µM
same,GI50,CAKI-1 renal,< 0.01 µM
same,TGI,CAKI-1 renal,> 100 µM
same,GI50,CCRF-CEM leukemia,< 0.01 µM
same,TGI,CCRF-CEM leukemia,> 100 µM
same,GI50,COLO 205 colon,< 0.01 µM
same,TGI,COLO 205 colon,< 0.01 µM
same,GI50,DU-145 prostate,< 0.01 µM
same,TGI,DU-145 prostate,> 100 µM
same,TGI,EKVX NSCLC,> 100 µM
same,GI50,HCC-2998 colon,< 0.01 µM
same,GI50,HCT-116 colon,< 0.01 µM
same,TGI,HCT-116 colon,> 100 µM
same,GI50,HCT-15 colon,< 0.01 µM
same,TGI,HCT-15 colon,> 100 µM
same,GI50,HL-60(TB) leukemia,< 0.01 µM
same,GI50,HOP-62 NSCLC,< 0.01 µM
same,TGI,HOP-62 NSCLC,> 100 µM
same,TGI,HOP-92 NSCLC,> 100 µM
same,GI50,HS 578T breast,< 0.01 µM
same,TGI,HS 578T breast,> 100 µM
same,GI50,HT29 colon,< 0.01 µM
same,TGI,HT29 colon,< 0.01 µM
same,GI50,IGROV1 ovarian,< 0.01 µM
same,TGI,IGROV1 ovarian,> 100 µM
same,GI50,K-562 leukemia,< 0.01 µM
same,TGI,K-562 leukemia,> 100 µM
same,GI50,KM12 colon,< 0.01 µM
same,TGI,KM12 colon,> 100 µM
same,GI50,LOX IMVI melanoma,< 0.01 µM
same,TGI,LOX IMVI melanoma,> 100 µM
same,GI50,M14 melanoma,< 0.01 µM
same,TGI,M14 melanoma,> 100 µM
same,GI50,MALME-3M melanoma,< 0.01 µM
same,TGI,MALME-3M melanoma,> 100 µM
same,GI50,MCF7 breast,< 0.01 µM
same,TGI,MCF7 breast,> 100 µM
same,GI50,MDA-MB-231 breast,< 0.01 µM
same,TGI,MDA-MB-231 breast,> 100 µM
same,GI50,MDA-MB-435,< 0.01 µM
same,TGI,MDA-MB-435,< 0.01 µM
same,GI50,MOLT-4 leukemia,< 0.01 µM
same,TGI,MOLT-4 leukemia,> 100 µM
same,GI50,NCI-H226 lung,< 0.01 µM
same,GI50,NCI-H23 lung,< 0.01 µM
same,TGI,NCI-H23 lung,> 100 µM
same,GI50,NCI-H460 lung,< 0.01 µM
same,TGI,NCI-H460 lung,> 39.1 µM
same,GI50,NCI-H522 lung,< 0.01 µM
same,TGI,NCI-H522 lung,< 0.01 µM
same,GI50,NCI/ADR-RES ovarian,< 0.01 µM
same,GI50,OVCAR-3 ovarian,< 0.01 µM
same,TGI,OVCAR-3 ovarian,> 100 µM
same,GI50,OVCAR-4 ovarian,0.546 µM
same,TGI,OVCAR-4 ovarian,> 100 µM
same,GI50,OVCAR-5 ovarian,< 0.01 µM
same,TGI,OVCAR-5 ovarian,> 100 µM
same,GI50,OVCAR-8 ovarian,< 0.01 µM
same,GI50,PC-3 prostate,< 0.01 µM
same,TGI,PC-3 prostate,> 100 µM
same,GI50,RPMI-8226 leukemia,< 0.01 µM
same,TGI,RPMI-8226 leukemia,> 34.5 µM
same,GI50,RXF 393 renal,< 0.01 µM
same,GI50,SF-268 CNS,< 0.01 µM
same,TGI,SF-268 CNS,> 100 µM
same,GI50,SF-295 CNS,< 0.01 µM
same,TGI,SF-295 CNS,> 100 µM
same,GI50,SF-539 CNS,< 0.01 µM
same,TGI,SF-539 CNS,< 0.01 µM
same,GI50,SK-MEL-2 melanoma,< 0.01 µM
same,TGI,SK-MEL-2 melanoma,> 94.8 µM
same,GI50,SK-MEL-28 melanoma,< 0.01 µM
same,TGI,SK-MEL-28 melanoma,> 100 µM
same,GI50,SK-MEL-5 melanoma,< 0.01 µM
same,TGI,SK-MEL-5 melanoma,0.012 µM
same,GI50,SK-OV-3 ovarian,< 0.01 µM
same,TGI,SK-OV-3 ovarian,> 100 µM
same,GI50,SN12C renal,< 0.01 µM
same,TGI,SN12C renal,> 100 µM
same,GI50,SNB-19 CNS,< 0.01 µM
same,TGI,SNB-19 CNS,> 100 µM
same,GI50,SNB-75 CNS,< 0.01 µM
same,GI50,SR leukemia,< 0.01 µM
same,TGI,SR leukemia,> 100 µM
same,GI50,SW-620 colon,< 0.01 µM
same,TGI,SW-620 colon,> 100 µM
same,GI50,T-47D breast,> 100 µM
same,TGI,T-47D breast,> 100 µM
same,GI50,TK-10 renal,> 100 µM
same,TGI,TK-10 renal,> 100 µM
same,GI50,U251 CNS,< 0.01 µM
same,TGI,U251 CNS,> 100 µM
same,TGI,UACC-257 melanoma,> 100 µM
same,GI50,UACC-62 melanoma,< 0.01 µM
same,TGI,UACC-62 melanoma,> 100 µM
same,GI50,UO-31 renal,< 0.01 µM
same,TGI,UO-31 renal,> 100 µM
